Tests used:
[1] = system: PC-3M; assay: MTT assay, antiproliferative activity; assay type: cell-based; settings: Homo sapiens, 48 h drug exposure, mean ± SD
Procedure: (§1) Human cancer cell lines BEL-7402, A549, MCF-7, PC-3M, and normal renal cell line HEK293 were bought from the BeNa Culture Collection (Beijing, China). BEL7402, A549, and PC-3M were cultured in RPMI 1640 medium (Gibco, Carlsbad, CA, USA). MCF-7 and HEK293 were cultured in the DMEM medium (Gibco, CA, USA). The medium was supplemented with 10% fetal bovine serum (FBS) (CLARK, San Diego, CA, USA), 100 U/mL penicillin, and 0.1 mg/mL streptomycin (Beyotime, Nanjing, China). The cells were incubated in 5% CO2 at 37 °C.
(§2) The MTT assay was employed to assess the inhibitory effect of each compound on cell growth. A549, PC-3M, MCF-7, BEL-7402, and HEK293 cells in the logarithmic growth phase were seeded in 96-well culture plates at an inoculum density of 5 × 10^4 cells/mL. After overnight incubation at 37 °C in a 5% CO2 atmosphere, the cells fully adhered to the surface. Different concentrations of sample solutions (0, 3.125, 6.25, 12.5, 25, 50, 100 μmol/L) were added (100 μL) to treat the cells. After 48 h of drug treatment, 10 μL of a 5 mg/mL MTT solution was added to each well and incubated for 4 h at 37 °C. The supernatant was then discarded, and 150 μL of DMSO was added to dissolve the formazan. The mixture was shaken at room temperature for 15 min, and the absorbance (D) value was measured at 490 nm using a Microplate Reader (HBS-ScanY, Nanjing, China). The drug IC50 values were calculated using GraphPad Prism (v10.0). Each cell viability experiment was performed in triplicate.

[2] = system: MCF-7; assay: MTT assay, antiproliferative activity; assay type: cell-based; settings: Homo sapiens, MCF7, 48 h drug exposure, mean ± SD
Procedure: as §1, §2

[3] = system: BEL-7402; assay: MTT assay, antiproliferative activity; assay type: cell-based; settings: Homo sapiens, 48 h drug exposure, mean ± SD
Procedure: as §1, §2

[4] = system: A549; assay: MTT assay, antiproliferative activity; assay type: cell-based; settings: Homo sapiens, 48 h drug exposure, mean ± SD
Procedure: as §1, §2

[5] = system: P38; assay: qRT-PCR; assay type: cell-based, human; settings: vs blank control, BEL-7402, p < 0.05
Procedure: (§3) Total RNA was extracted from BEL-7402 cells before and after Mito-ICT-4 treatment using the Trizol method. The RNA was then reverse transcribed and used for quantitative real-time PCR (qRT-PCR) analysis. All gene sequences were obtained from the official website of NCBI (http://ncbi.nlm.nih.gov, accessed on 16 December 2023), and primers were designed and synthesized by Sangon Biotech. β-actin was used as an internal reference. To each well, 10 µL of 2 × SGExcel FastSYBR (Sangon Biotech, Shanghai, China) mixture was added, along with 0.4 µL each of forward and reverse primers (F/R), followed by 2 µL of cDNA. The volume was then adjusted to 20 µL with water. The qRT-PCR amplification procedure included the following steps: pre-denaturation at 95 °C for 3 min, denaturation at 95 °C for 15 s, and annealing at 60 °C for 45 s. A total of 45 cycles were performed. Fluorescence signals were collected from 60 °C to 95 °C using an ABI 7500 fluorescence quantitative PCR instrument (ABI, Waltham, MA, USA). Gene expression was calculated using the 2^−ΔΔCt method.

[6] = system: DDIT3; assay: qRT-PCR; assay type: cell-based, human; settings: vs blank control, BEL-7402, p < 0.05
Procedure: as §3

[7] = system: SIRT3; assay: qRT-PCR; assay type: cell-based, human; settings: vs blank control, BEL-7402, p < 0.05
Procedure: as §3

[8] = system: MKK6; assay: qRT-PCR; assay type: cell-based, human; settings: vs blank control, BEL-7402, p < 0.05
Procedure: as §3

[9] = system: CypD; assay: qRT-PCR; assay type: cell-based, human; settings: vs blank control, BEL-7402, p < 0.05
Procedure: as §3

[10] = system: BEL-7402 cells; assay: JC-1 staining, mitochondrial membrane potential; assay type: cell-based, human; settings: JC-1, 0.625, 1.25, 2.5 μmol/L, 48 h
Procedure: Drug grouping and administration were performed as described in Section 2.5. After 48 h of incubation, 500 μL of JC-1 fluorescent dye (Beyotime, Nanjing, China) was added to each well. The cells were stained at 37 °C for 30 min, after which the dye was discarded. The cells were then washed three times with PBS and observed under an inverted fluorescence microscope.

[11] = system: DDIT3; assay: Western blot; assay type: cell-based, human; settings: vs blank control, p < 0.001
Procedure: (§4) Drug grouping and administration were performed as described in Section 2.6. After 48 h of incubation, the supernatant was discarded, and the cells were washed twice with pre-cooled PBS. A volume of 150 µL of RIPA lysis buffer (Solarbio, Beijing, China) was added and incubated on ice. After sufficient lysis, the supernatant was centrifuged, and the protein concentration was determined using a BCA kit (Thermo, Waltham, MA, USA). The SDS-PAGE gel system was chosen based on the molecular weight of the target proteins to perform electrophoresis. After electrophoresis, the processed samples were transferred to a membrane and incubated at room temperature for 2 h to block non-specific binding. After membrane transfer, the membranes were incubated with primary antibodies against CypD (Proteintech Group, Wuhan, China), SIRT3 (Abcam, Cambridge, UK), P-MKK6 (Bioss, Beijing, China), P-P38 (Bioss, Beijing, China), DDIT3 (Bioss, Beijing, China), Cleaved-caspase-3 (Abcam, Cambridge, UK), and β-actin (ZSGB-BIO, Beijing, China) (1:1000) at 4 °C overnight. After primary antibody binding, the membranes were incubated with the corresponding secondary antibody (ZSGB-BIO, Beijing, China) (1:3000) at room temperature for 1 h. Immunoblot bands were detected using an enhanced chemiluminescence system (Analytik Jena AG, Jena, Germany). The bands were analyzed using ImageJ (v1.8.0) software.

[12] = system: P-MKK6; assay: Western blot; assay type: cell-based, human; settings: with increasing concentrations vs blank control, p < 0.001
Procedure: as §4

[13] = system: SIRT3; assay: Western blot; assay type: cell-based, human; settings: 48 h
Procedure: as §4

[14] = system: P-P38; assay: Western blot; assay type: cell-based, human; settings: with increasing concentrations vs blank control, p < 0.001
Procedure: as §4

[15] = system: Cl-caspase-3; assay: Western blot; assay type: cell-based, human; settings: 48 h
Procedure: as §4

[16] = system: CypD; assay: Western blot; assay type: cell-based, human; settings: 48 h
Procedure: as §4

[17] = low-concentration group vs control, p < 0.01

COc1ccc(-c2oc3c(CC=C(C)C)c(OC(=O)CCCCCCCCCC[P+](c4ccccc4)(c4ccccc4)c4ccccc4)cc(O)c3c(=O)c2O)cc1 [Mito-ICT-4]
IC50 [1]: 11.3 ± 1.55 µM | IC50 [2]: 10.8 ± 1.2 µM | IC50 [3]: 0.73 ± 0.06 µM | IC50 [4]: 5.15 ± 0.59 µM | P38 gene expression level [5]: significantly downregulated | DDIT3 gene expression level [6]: significantly upregulated | SIRT3 gene expression level [7]: significantly downregulated | MKK6 gene expression level [8]: significantly downregulated | CypD gene expression level [9]: significantly upregulated | mitochondrial membrane potential [10]: reduction | expression level of DDIT3 [11]: increased significantly | expression level of P-MKK6 [12]: decreased significantly | SIRT3 expression levels [13, 17]: decreased | SIRT3 expression levels ([13]; medium- and high-concentration groups vs control, p < 0.001): significantly reduced | expression level of P-P38 [14]: decreased significantly | expression of Cl-caspase-3 ([15]; high-concentration group vs control, p < 0.001): significantly higher | expression of Cl-caspase-3 [15, 17]: elevated | CypD protein expression [16, 17]: elevated | CypD protein expression ([16]; medium and high-concentration groups vs control, p < 0.001): significantly higher
